Structures are written as SMILES. In brackets after ≈: the same amount, converted by molar mass. Where a name gives a salt, the structure may show the parent alone.

In the first series the test system is ill subjects treated with rifampicin.
Assay: not given
The following applies: cited from earlier work.
For the compound `CO[C@H]1/C=C/O[C@@]2(C)Oc3c(C)c(O)c4c(O)c(c(/C=N/N5CCN(C)CC5)c(O)c4c3C2=O)NC(=O)/C(C)=C\C=C\[C@H](C)[C@H](O)[C@@H](C)[C@@H](O)[C@@H](C)[C@H](OC(C)=O)[C@@H]1C` [rifampicin], the “unsuccessful therapeutic treatments caused by hepatobiliar alterations” value is given as “over 10%”.

Tested on in a further series: not listed separately
Kind of series: physchem. The format is physicochemical.
Conditions: not given
On the procedure:
When the work is carried out as in above mentioned examples, using 2 mol of sodium ethylhexanoate versus 1 mol of rifamycin derivative, the soluble forms of other derivatives, presented in Table 1, are obtained using the specific volumes of solvent, and resulting in the products characterized by the main proprieties tabulated.
For the compound `CO[C@H]1/C=C/O[C@@]2(C)Oc3c(C)c(O)c4c(O)c(c(C=NO)c(O)c4c3C2=O)NC(=O)/C(C)=C\C=C\[C@H](C)[C@H](O)[C@@H](C)[C@@H](O)[C@@H](C)[C@H](OC(C)=O)[C@@H]1C` [Example 7, 3-formylrifamycin SV oxime], the Solubility soluble form result is “over 100 mg/ml”.
`CO[C@H]1/C=C/O[C@@]2(C)Oc3c(C)c(O)c4c(O)c(c(C=NO)c(O)c4c3C2=O)NC(=O)/C(C)=C\C=C\[C@H](C)[C@H](O)[C@@H](C)[C@@H](O)[C@@H](C)[C@H](OC(C)=O)[C@@H]1C` [Example 8, 3-formylrifamycin SV oxime (K salt)]: the Solubility soluble form stood at 25000 µg/mL.

Staying with this series, now noted: Solubility as such.
`CO[C@H]1/C=C/O[C@@]2(C)Oc3c(C)c(O)c4c(O)c(c(C=NNc5ccc(-c6ccc(C)cc6)nn5)c(O)c4c3C2=O)NC(=O)/C(C)=C\C=C\[C@H](C)[C@H](O)[C@@H](C)[C@@H](O)[C@@H](C)[C@H](OC(C)=O)[C@@H]1C` [3-[3'-(p-tolyl)-pyridazinyl-6'-hydrazonomethyl]-rifamycin SV, reference compound]: the solubility (commonly the dissolved amount per volume that the medium holds) is 270 µg/mL (≈ 0.297 mM).
As for `CO[C@H]1/C=C/O[C@@]2(C)Oc3c(C)c(O)c4c(O)c(c(C=NNC(=O)Cc5ccccc5)c(O)c4c3C2=O)NC(=O)/C(C)=C\C=C\[C@H](C)[C@H](O)[C@@H](C)[C@@H](O)[C@@H](C)[C@H](OC(C)=O)[C@@H]1C` [3-(phenylacetylhydrazonomethyl)-rifamycin SV, reference compound], the concentration in solution (solubility) was 4800 µg/mL (≈ 5.59 mM).
`CCON=Cc1c2c(O)c3c(O)c(C)c4c(c3c1O)C(=O)[C@@](C)(O/C=C/[C@H](OC)[C@@H](C)[C@@H](OC(C)=O)[C@H](C)[C@H](O)[C@H](C)[C@@H](O)[C@@H](C)/C=C/C=C(/C)C(=O)N2)O4` [3-(ethyloximinomethyl)rifamycin SV, reference compound]: the solubility came to 120 µg/mL (≈ 0.156 mM).
Turning to `CO[C@H]1/C=C/O[C@@]2(C)Oc3c(C)c(O)c4c(O)c(c(C=NO)c(O)c4c3C2=O)NC(=O)/C(C)=C\C=C\[C@H](C)[C@H](O)[C@@H](C)[C@@H](O)[C@@H](C)[C@H](OC(C)=O)[C@@H]1C` [3-formylrifamycin SV oxime, reference compound], the concentration in solution (solubility) was 5500 µg/mL (≈ 7.42 mM).
In turn, `CO[C@H]1/C=C/O[C@@]2(C)Oc3c(C)c(O)c4c(O)c(c(C=NOCCBr)c(O)c4c3C2=O)NC(=O)/C(C)=C\C=C\[C@H](C)[C@H](O)[C@@H](C)[C@@H](O)[C@@H](C)[C@H](OC(C)=O)[C@@H]1C` [3-(2-bromethyloximinomethyl)-rifamycin SV, reference compound] gave a solubility of 2950 µg/mL (≈ 3.48 mM).
`CO[C@H]1/C=C/O[C@@]2(C)Oc3c(C)c(O)c4c(O)c(c(C=NNC(=O)COc5ccccc5)c(O)c4c3C2=O)NC(=O)/C(C)=C\C=C\[C@H](C)[C@H](O)[C@@H](C)[C@@H](O)[C@@H](C)[C@H](OC(C)=O)[C@@H]1C` [3-phenoxyacetylhydrazonomethyl)-rifamysin SV, reference compound] displayed a solubility of 2750 µg/mL (≈ 3.15 mM).
`CO[C@H]1/C=C/O[C@@]2(C)Oc3c(C)c(O)c4c(O)c(c(C=NNc5ccc(-c6ccc(C)c(C)c6)nn5)c(O)c4c3C2=O)NC(=O)/C(C)=C\C=C\[C@H](C)[C@H](O)[C@@H](C)[C@@H](O)[C@@H](C)[C@H](OC(C)=O)[C@@H]1C` [3-[3'-(3",4"-dimethylphenyl)-pyridazinyl-6'-hydrazonomethyl]-rifamycin SV, reference compound] yielded a solubility of less than 100 µg/mL.
`CO[C@H]1/C=C/O[C@@]2(C)Oc3c(C)c(O)c4c(O)c(c(C=NNC(=O)c5ccncc5)c(O)c4c3C2=O)NC(=O)/C(C)=C\C=C\[C@H](C)[C@H](O)[C@@H](C)[C@@H](O)[C@@H](C)[C@H](OC(C)=O)[C@@H]1C` [3-(isonicotinoylhydrazonomethyl)-rifamycin SV, reference compound] came in with a solubility of 920 µg/mL (≈ 1.09 mM).

The series is the same for the next values; noted with them: Solubility soluble form.
For `CO[C@H]1/C=C/O[C@@]2(C)Oc3c(C)c(O)c4c(O)c(c(C=NNc5ccc(-c6ccc(C)c(C)c6)nn5)c(O)c4c3C2=O)NC(=O)/C(C)=C\C=C\[C@H](C)[C@H](O)[C@@H](C)[C@@H](O)[C@@H](C)[C@H](OC(C)=O)[C@@H]1C` [Example 12, 3-[3'-(3",4"-dimethylphenyl)-pyridazinyl-6'-hydrazonomethyl]-rifamycin SV], the solubility stood at 540 µg/mL (≈ 0.586 mM).
In turn, `CCON=Cc1c2c(O)c3c(O)c(C)c4c(c3c1O)C(=O)[C@@](C)(O/C=C/[C@H](OC)[C@@H](C)[C@@H](OC(C)=O)[C@H](C)[C@H](O)[C@H](C)[C@@H](O)[C@@H](C)/C=C/C=C(/C)C(=O)N2)O4` [Example 9, 3-(ethyloximinomethyl)rifamycin SV] came in with a solubility greater than 100000 µg/mL.
Compound `CO[C@H]1/C=C/O[C@@]2(C)Oc3c(C)c(O)c4c(O)c(c(C=NOCCBr)c(O)c4c3C2=O)NC(=O)/C(C)=C\C=C\[C@H](C)[C@H](O)[C@@H](C)[C@@H](O)[C@@H](C)[C@H](OC(C)=O)[C@@H]1C` [Example 10, 3-(2-bromethyloximinomethyl)-rifamycin SV] returned a solubility greater than 100000 µg/mL.
Same read-out and setting: under `CO[C@H]1/C=C/O[C@@]2(C)Oc3c(C)c(O)c4c(O)c(c(C=NNc5ccc(-c6ccc(C)cc6)nn5)c(O)c4c3C2=O)NC(=O)/C(C)=C\C=C\[C@H](C)[C@H](O)[C@@H](C)[C@@H](O)[C@@H](C)[C@H](OC(C)=O)[C@@H]1C` [Example 11, 3-[3'-(p-tolyl)-pyridazinyl-6'-hydrazonomethyl]-rifamycin SV] stands 540 µg/mL (≈ 0.595 mM); under `CO[C@H]1/C=C/O[C@@]2(C)Oc3c(C)c(O)c4c(O)c(c(C=NNC(=O)COc5ccccc5)c(O)c4c3C2=O)NC(=O)/C(C)=C\C=C\[C@H](C)[C@H](O)[C@@H](C)[C@@H](O)[C@@H](C)[C@H](OC(C)=O)[C@@H]1C` [Example 15], 128000 µg/mL (≈ 146 mM); under `CO[C@H]1/C=C/O[C@@]2(C)Oc3c(C)c(O)c4c(O)c(c(C=NNC(=O)c5ccncc5)c(O)c4c3C2=O)NC(=O)/C(C)=C\C=C\[C@H](C)[C@H](O)[C@@H](C)[C@@H](O)[C@@H](C)[C@H](OC(C)=O)[C@@H]1C` [Example 13, 3-(isonicotinoylhydrazonomethyl)-rifamycin SV], 168000 µg/mL (≈ 199 mM).
On the same count and under the same terms, under `CO[C@H]1/C=C/O[C@@]2(C)Oc3c(C)c(O)c4c(O)c(c(C=NNC(=O)Cc5ccccc5)c(O)c4c3C2=O)NC(=O)/C(C)=C\C=C\[C@H](C)[C@H](O)[C@@H](C)[C@@H](O)[C@@H](C)[C@H](OC(C)=O)[C@@H]1C` [Example 14, 3-(phenylacetylhydrazonomethyl)-rifamycin SV] stands 71000 µg/mL (≈ 82.8 mM).
